The target in one test is T1, PPARβ/δ (Homo sapiens, UniProt Q03181).
T1 construct: three types of pcDNA5-GAL4 and pGALRE-luc containing PPARα-LBD, PPARβ/δ-LBD, or PPARγ-LBD; GAL4 (fusion partner from vector pcDNA5-GAL4); expressed in transfected cells; host or cells: HEK293
T1 sequence (Q03181 211-439 limits assumed): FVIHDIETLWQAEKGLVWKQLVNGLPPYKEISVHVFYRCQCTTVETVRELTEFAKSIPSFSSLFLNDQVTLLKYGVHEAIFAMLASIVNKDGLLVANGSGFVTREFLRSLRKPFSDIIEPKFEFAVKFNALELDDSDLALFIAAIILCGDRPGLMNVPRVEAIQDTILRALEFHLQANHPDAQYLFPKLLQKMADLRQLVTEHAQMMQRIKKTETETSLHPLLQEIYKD
Description: Gal4 trans-activated luciferase reporter assay, PPARβ/δ-LBD, HEK293. The class given is cell-based. The following applies: HEK293, drug treatment 24 hours, FIG. 1. The method, then: A plasmid was transformed into E. coli (DE3, Rosetta) and transfected into HEK293 cells and used. Referring to known literatures such as Kanno, Y. & Inouye, Y. J Toxicol Sci 35, 515-525 (2010), Zhao, S. et al. J Nat Prod 79, 879-885 (2016), etc., luciferase assay was performed on three types of pcDNA5-GAL4 and pGALRE-luc containing PPARα-LBD, PPARβ/δ-LBD, or PPARγ-LBD. pProEX-PPAR and pET-28a were used for purification of His-tagged recombinant hPPAR-LBD protein.
A HEK293 cell line was cultured in Dulbecco's Modified Eagle Medium (DMEM) containing 10% Fetal Bovine Serum (FBS) and 1% penicillin-streptomycin (P/S). […]
Transfected HEK293 cells were treated with a drug and after 24 hours, the cells were collected, resuspended in a luciferase lysis buffer (Promega, Madison, Wisconsin, USA), and incubated on ice for 10 minutes. […] Next, Firefly Luciferase (Fluc) and Renilla Luciferase (Rluc) activities were measured using the Dual Luciferase Reporter Assay System (Promega, Madison, Wisconsin, USA). […]
To confirm whether a compound represented by Chemical Formula 1 was a PPAR agonist, Gal4 trans-activated luciferase assay was performed. Specifically, HEK293 cells were transfected with the Gal4-luciferase reporter systems of PPARα, PPARβ/δ, and PPARγ, respectively, harvested after drug treatment for 24 hours, and then analyzed by Dual-Luciferase assay. […]
Background: A reporter such as luciferase makes a cellular process visible.

In the next test the test system is high-fat diet mice. Nature of the test: Histology of liver tissues of high-fat diet mice (H&E, Sirius Red, Oil Red O, NAFLD activity score). The class given is in vivo, C57BL/6J mice. The following applies: 5 mg/kg/day oral, 13 weeks HFD. The protocol:
After the differentiation of 3T3-L1 in the 12-well plate was completed, the cells were fixed with 4% paraformaldehyde and stained with an Oil Red O solution, and then the stained samples were photographed under a microscope (Nikon Eclipse Ti-s). An Oil Red O dye of the samples was dissolved in isopropanol, detected by a spectrophotometer at 492 nm, and the lipid droplet size distribution was measured using ImageJ. OCT-embedded liver samples were stained according to the Roy Ellis protocol.
The care and use of experimental animals were carried out with the approval of the Institutional Animal Care and Use Committee of Pohang University of Science and Technology. C57BL/6J mice were purchased from Japan SLC, Inc. 50 four-week-old male C57/BL/6J mice were acclimated for 2 weeks. The mice were randomly divided and orally administered with vehicle or 5 mg/kg/day of D6 or WY14643 for 13 weeks (oral gavage), and obesity was induced by a 60% high-fat diet (#D12492, Research diets, NJ, USA). Body weights and food intakes were measured weekly from 6 weeks of age, and after 16 weeks of age, adipose tissue and muscle volumes were measured using a Trimodality imaging system.
Mouse tissues were fixed with 10% formalin solution (Sigma-Aldrich, St. Louis, MO, USA), and paraffin-embedded tissues were segmented and stained with hematoxylin and eosin (H&E) staining and Sirius Red staining (IHC world, Woodstock, USA).
Fibrosis and vesicular fat in liver tissue were observed using Sirius Red and Oil Red O staining methods. The NAFLD activation score was evaluated by referring to Kleiner, D. E. et al. Hepatology 41, 1313-1321, doi: 10.1002/hep.20701 (2005), etc., according to the NASH Clinical Research Network Scoring System.
To evaluate the effects on fatty liver-related symptoms after administration of the compound represented by Chemical Formula […], Sirius Red, and Oil Red O staining were performed on liver tissues of mice fed with a high-fat diet for 13 weeks.

In the case of `COc1ccc(-c2cc(=O)oc3c(C)c(OC(=O)[C@H](Cc4c[nH]c5ccccc45)NC(=O)OC(C)(C)C)ccc23)cc1` [Chemical Formula 1, [4-(4-methoxyphenyl)-8-methyl-2-oxochromen-7-yl] (2S)-3-(1H-indol-3-yl)-2-[(2-methylpropan-2-yl)oxycarbonylamino]propanoate], the “relative luciferase activity (Fluc to Rluc) for PPARβ/δ” value at PPARβ/δ was “dose-dependently increased”. Further, the “level of lipid droplet accumulation in the liver (Oil Red O)” value in the test with high-fat diet mice (FIG. 18) is recorded as “reduced”. Also, the “NAFLD activity score (H&E images of liver tissue)” value in the test with high-fat diet mice (compared with WY14643 5 mg/kg/day, FIG. 17) was “better effect of improving the NAFLD disease index than the high-fat diet mice (HFD-WY) administered with WY14643”. For the same compound, the “histological findings of fatty liver-related diseases in liver tissue” value in the test with high-fat diet mice (vs HFD-V, FIG. 16) was “reduced”.

These data come from US20260027083A1, “USE OF PPAR AGONIST FOR IMPROVEMENT OF ENERGY METABOLISM” (NOVMETAPHARMA CO., LTD., priority 2022, published 2026).
